# Data from publication PMC4658182, “The Synthetic Antimicrobial Peptide 19-2.5 Interacts with Heparanase and Heparan Sulfate in Murine and Human Sepsis” (PLoS ONE, 2015).
# System: heparanase
# Assay: Relative heparanase mRNA expression in organs (qPCR), CLP septic mice
# Format: in vivo, murine
# Settings: 24 h after CLP
# Protocol: The murine model of polymicrobial sepsis was divided into three steps as described before. Briefly, in a first step 12 NMRI mice underwent a catheterization procedure under general (isoflurane 1% to 2% in oxygen/air mix with a FiO2 of 0.3) and local (0.2 ml lidocaine 2%) anesthesia. A central vein catheter (PE-tube, self-made) was implanted in the jugular vein. After further local infiltration with lidocaine, the neck was closed by single suture. To prevent hypothermia all animals were kept on a heating pad throughout the surgical procedure. Mice were transferred back into the cage to rest for 48h. The i.v.-line was connected to the syringe pump at a rate of 100 μl/h (NaCl 0.9%).
# In a second step, general and local anesthesia for cecal ligature and puncture (CLP) was performed as described above. The animal were transferred to the cage and reconnected with the i.v.-line. Depending on the group, peptide 19–2.5 infusion (20 μg/ml, 100 μl/h) or NaCl 0.9% infusion (100 μl/h) was started.
# Finally, in a third step all animals were killed 24 h after CLP. Therefore, the animals were anesthetized as described above, brought to a prone position and the abdomen and thorax were opened. Blood was sampled in pre-citrated syringes. Directly after killing the animal under general anesthesia by cervical dislocation heart, liver, lung, kidney and spleen were snap-frozen in liquid […] until further procedures.
# As described before, total RNA was extracted from snap-frozen tissue (RNeasy Mini Kit, Qiagen, Hilden, Germany) and reverse transcribed to cDNA (Quanti Tec, Rev Transcription Kit, Qiagen, Hilden, Germany). cDNA was analyzed by quantitative real-time PCR performed with Power SYBR Green PCR Master Mix on a StepOnePlus (all Applied Biosystems, Foster City, CA, USA) using a mouse specific primer (biomers, Ulm, Germany) for heparanase 5’-[…]-3’ (for) and 5’-[…]-3’ (rev). Beta-actin was used as an endogenous normalization control: 5’-[…]-3’ (for), 5’-CGG ATGTCAACGTCACACTT-3’ (rev). […]
# All data are given as mean ± standard deviation (SD). As described recently, the PCR-derived mRNA expressions were analyzed using a relative expression software tool (REST, (http://www.gene-quantification.de/rest.html, rest-mcs-beta-9august 2006) performing a randomization test. This tool avoids assumptions on distributions and applies a pair wise fixed reallocation randomization test, which reallocates control and sample groups (= pair wise fixed reallocation). The expression ratios are calculated on the basis of the mean crossing point (CP) values for reference and target genes. We used a multiple t-test with Holm-Šídák correction when comparing differences between groups. […]
substance,measurement,setting,value
peptide 19–2.5: synthetic antimicrobial peptide 19–2.5 belongs to the class of synthetic anti-lipopolysaccharide peptides (SALP = synthetic anti-LPS peptides),heparanase mRNA expression under peptide treatment,"all investigated organ tissues (heart, liver, lung, kidney, spleen), CLP-mice, 20 μg/ml, 100 μl/h i.v., Fig 2",decreased heparanase mRNA expression in all investigated organ tissues
same,"relative heparanase mRNA expression, untreated CLP-mice vs peptide-treated","kidney, increase in untreated CLP-mice vs peptide 19–2.5 (20 μg/ml, 100 μl/h i.v., n = 6 per group), normalized to ß-actin, mean ± SD, Fig 2E",5.7±1.9 fold
same,"relative heparanase mRNA expression, untreated CLP-mice vs peptide-treated","lung, liver, spleen, heart and kidney, result in words, 20 μg/ml, 100 μl/h i.v., n = 6 per group, Fig 2A–2E, **p < 0.01, ***p < 0.0001",significantly higher in untreated CLP-mice compared to mice treated with peptide 19–2.5
same,"relative heparanase mRNA expression, untreated CLP-mice vs peptide-treated","lung, increase in untreated CLP-mice vs peptide 19–2.5 (20 μg/ml, 100 μl/h i.v., n = 6 per group), normalized to ß-actin, mean ± SD, Fig 2A",2.2±2.2 fold
